Source: paper PMC3894558, “Chemical signatures and new drug targets for gametocytocidal drug development” (Scientific Reports, 2014)
“Also recorded” adds a separate entry of the source. Like-named read-outs stand apart in the source and are kept apart here.

Key:
[1] = test system: P. falciparum 3D7 gametocytes; assay: alamarBlue gametocyte viability assay, strain 3D7; assay type: cell-based, Plasmodium falciparum; settings: for IC50: Plasmodium falciparum
[2] = test system: P. falciparum HB3 gametocytes; assay: alamarBlue gametocyte viability assay, strain HB3; assay type: cell-based, Plasmodium falciparum; settings: Plasmodium falciparum
[3] = test system: P. falciparum Dd2 gametocytes; assay: alamarBlue gametocyte viability assay, strain Dd2; assay type: cell-based, Plasmodium falciparum; settings: for IC50: Plasmodium falciparum
[4] = test system: Dd2 asexual parasites; parameters: method as in PMID 17116676; settings: cited from earlier work
[5] = test system: HepG2 cells; settings: 11 concentrations, 1:3 dilution; Inactive = no significant activity at 46 µM
[6] = test system: HepG2 cells; assay: cells; settings: Homo sapiens; for Emax: HepG2, read-out: % Max response
[7] = test system: P. falciparum asexual blood stage parasites; assay: asexual parasite SYBR green assay; assay type: cell-based, Plasmodium falciparum; settings: for IC50: Plasmodium falciparum, SYBR green assay, read-out: IC50 against asexual parasites
[8] = test system: mTOR; parameters: method as in PMID 21322566; settings: cited from earlier work
[9] = test system: Plasmodium berghei ANKA; assay: mouse-mosquito transmission model, oocysts per mosquito midgut; assay type: in vivo, Plasmodium berghei in mice / Anopheles stephensi
[10] = parameters: method as in PMID 21322566; settings: cited from earlier work
[11] = test system: P. falciparum liver stage; parameters: method as in PMID 6285190; settings: read-out: IC50, P. falciparum development in the liver stage; cited from earlier work
[12] = test system: P. falciparum asexual blood stage; parameters: method as in PMID 6285190; settings: cited from earlier work
[13] = test system: early stages (I and II) of P. falciparum gametocytes; parameters: method as in PMID 6285190; settings: cited from earlier work
[14] = DD2, read-out: Dd2-gametocytes IC50
[15] = 3D7, P. falciparum 3D7 gametocytes, mean of at least 3 independent experiments, read-out: Gametocyte IC50
[16] = HB3, strain profiling, 11 concentrations, 1:3 dilution, three times, read-out: HB3-gametocytes IC50
[17] = DD2, strain profiling, 11 concentrations, 1:3 dilution, three times, read-out: Dd2-gametocytes IC50

Structure (SMILES): CCN(CC)CCCC(C)Nc1ccnc2cc(Cl)ccc12 (stereo not drawn) [Chloroquine diphosphate]
- IC50 ([1]; 3D7, read-out: 3D7-gametocytes IC50): 253 nM
- IC50 ([2]; HB3, read-out: HB3-gametocytes IC50, strain profiling, 11 concentrations, 1:3 dilution, three times): 935 nM
- reduction of potency against Dd2 gametocytes compared to 3D7 [3]: 3.7 fold
- IC50 ([3]; DD2, read-out: Dd2-gametocytes IC50, strain profiling, 11 concentrations, 1:3 dilution, three times): 935 nM
- fold less potent against Dd2 asexual parasites compared to 3D7 [4]: 10 fold

Structure (SMILES): S=C(SSC(=S)N1CCCCC1)N1CCCCC1 [Dicyclopentamethylenethiuram disulfide]
- IC50 ([1]; P. falciparum 3D7 gametocytes, mean of at least 3 independent experiments, read-out: Gametocyte IC50): 274 nM
- IC50 ([2]; HB3, read-out: HB3-gametocytes IC50): 743 nM
- IC50 [3, 14]: 743 nM
- IC50 in HepG2 cells [5]: Inactive
- Emax [6]: 0%

Structure (SMILES): CN(C)c1ccc2nc3ccc(=[N+](C)C)cc-3sc2c1 [Methylene blue]
- IC50 [1, 15]: 307 nM
- IC50 [2, 16]: 935 nM
- IC50 [3, 17]: 526 nM
- IC50 in HepG2 cells [5]: Inactive
- Emax [6]: -20%

Structure (SMILES): O=C1C(=O)c2ncccc2-c2cccnc21 [Phanquinone]
- IC50 [1, 15]: 109 nM
- IC50 [2, 16]: 37 nM
- IC50 [3, 17]: 53 nM
- IC50 in HepG2 cells [5]: Inactive
- Emax [6]: 23%

Structure (SMILES): CN(C)C(=S)SSC(=S)N(C)C [Thiram]
- IC50 [1, 15]: 83 nM
- IC50 [2, 16]: 148 nM
- IC50 [3, 14]: 148 nM
- IC50 in HepG2 cells [5]: Inactive
- Emax [6]: 23%

Structure (SMILES): CCC(=O)N1CCN(c2ccc(-n3c(=O)ccc4cnc5ccc(-c6cnc7ccccc7c6)cc5c43)cc2C(F)(F)F)CC1 [Torin 1, 1-[4-[4-(1-Oxopropyl)-1-piperazinyl]-3-(trifluoromethyl)phenyl]-9-(3-quinolinyl)-benzo[h]-1,6-naphthyridin-2(1H)-one]
- IC50 ([1]; 3D7, read-out: 3D7-gametocytes IC50, strain profiling, 11 concentrations, 1:3 dilution, three times): 6620 nM
- IC50 ([1]; 3D7, read-out: Gametocyte IC50, P. falciparum 3D7 gametocytes, mean of at least 3 independent experiments): 1600 nM
- IC50 [2, 16]: 3720 nM
- IC50 [3, 17]: 5260 nM
- IC50 [7]: 215 nM

Structure (SMILES): Nc1ccc(-c2ccc3ncc4ccc(=O)n(-c5cccc(C(F)(F)F)c5)c4c3c2)cn1 [Torin 2, 9-(6-Amino-3-pyridinyl)-1-[3-(trifluoromethyl)phenyl]-benzo[h]-1,6-naphthyridin-2(1H)-one]
- IC50 [1, 15]: 8 nM
- IC50 [2, 16]: 15 nM
- IC50 [3, 17]: 12 nM
- IC50 [7]: 2.75 nM
- exflagellation just prior to mosquito feed, drug- vs vehicle-treated mice ([9]; 1.5 hrs after drug treatment): no difference; also recorded: equivalent to that of the vehicle-treated controls
- oocyst production in fed mosquitoes ([9]; single dose 2 mg/kg i.v.): significantly reduced
- oocyst production in fed mosquitoes ([9]; single dose 4 mg/kg i.v., 4 mg/kg): almost completely eliminated; also recorded: nearly complete elimination
- oocyst production in fed mosquitoes ([9]; two 4 mg/kg doses i.v. 3 hrs apart, feed 1.5 hrs after final treatment): completely block; also recorded: completely prevented
- Emax [6]: -46%
- IC50 ([6]; HepG2, read-out: IC50 in HepG2 cells): 9.35 µM
- oral bioavailability [10]: 51%
- IC50 [11]: 1.1 nM
- IC50 [12]: 1.4 nM
- IC50 [13]: 6.6 nM
